For experiment [1], the system named is esophageal adenocarcinoma. In words: combination with CAPDX regimen, esophageal adenocarcinoma patients. It is filed as in vivo, human. The settings on record: Chemo Backbone CAPOX, 0 prior lines. On the procedure:
The effects of 2-acetylnaphtho[2,3-b]furan-4,9-dione in combination with capecitabine as part of a CAPDX regimen was assessed in adult patients with esophageal adenocarcinoma.
Four patients aged 58-82 who were pretreated with 0-3 lines of prior treatment received oral administration of 2-acetylnaphtho[2,3-b]furan-4,9-dione twice daily together with CAPDX. For example, 2-acetylnaphtho[2,3-b]furan-4,9-dione was administered at a dose of 240 mg BID or 480 mg BID in combination with CAPDX until progression of disease, unacceptable toxicity, or other discontinuation criterion was met. CAPDX was administered orally (capecitabine) and IV (oxaliplatin). Capecitabine 850 mg/m^2 was administered orally twice-daily for 14 consecutive days and repeated every 21 days or until progression of disease, unacceptable toxicity, or other discontinuation criterion was met. Oxaliplatin 130 mg/m^2 was administered IV and repeated every 21 days thereafter. If capecitabine was tolerated at the 850 mg/m^2 twice daily dose, dosage was increased to 1000 mg/m^2 twice daily as tolerated after the first cycle.

The test system of experiment [2] is FaDu cancer stem cells. In words: stemness gene expression versus chemo- and targeted therapeutics. It is filed as cell-based. The settings on record: 24 hours, 2-acetylnaphtho[2,3-b]furan-4,9-dione 2 mM, sunitinib 20 mM, gemcitabine 2 mM, carboplatin 32 mM, FIGS. 4(A)-(D). How it is done: FIGS. 4(A)-(D) depict FaDu cancer stem cells that were treated for 24 hours with DMSO and: (i) 2-acetylnaphtho[2,3-b]furan-4,9-dione (2 mM) (FIG. 4(A)), (ii) sunitinib (20 mM) (FIG. 4(B)), (iii) gemcitabine (2 mM) (FIG. 4(C)), or (iv) carboplatin (32 mM) (FIG. 4(D)).

The subject of experiment [3] is p-Stat3 and β-catenin. Description: cancer stem cell markers in cancer xenograft models (immunofluorescence). It is filed as in vivo, athymic nude mice. The note with it: human colon cancer xenograft Tumor (SW480) in nude mice, tumors harvested after first dosing; FIG. 5. How it is done: The effects of 2-acetylnaphtho[2,3-b]furan-4,9-dione on cancer stem cell markers was also examined in cancer xenograft models with and without irinotecan. Human cancer cells were subcutaneously implanted into the right flank of 5-7 weeks old female athymic nude mice. When tumor size reached 200 mm^3, animals were treated with 2-acetylnaphtho[2,3-b]furan-4,9-dione, irinotecan, or a combination of 2-acetylnaphtho[2,3-b]furan-4,9-dione and irinotecan. Tumors were harvested after first dosing.
The harvested tissues were fixed in 3.7% neutral buffered formaldehyde at 4° C. for overnight. The paraffin was embedded, cut to about 5 microns, and affixed onto positively charged slides. After being baked and de-paraffinized, the slides with tumor or control tissues were incubated in 10 mM Sodium Citrate (pH 6.0) for 10 minutes. After antigen retrieval, slides were probed with primary antibodies P-STAT3 (rabbit, Cell Signaling, 1:100), 13-Catenine (mouse, Santa Cruz, 1:400) at 4° C. overnight, and then Alexa Fluor fluorescent dyes-conjugated secondary antibodies (1:500, Invitrogen). After mounting with ProLong mounting medium with DAPI (Invitrogen), the slides were examined under a Zeiss fluorescence microscope with 20× objective, and analyzed with Zen software.

The values below come from patent publication US20180098959A1, “METHODS FOR TREATING CANCER” (BOSTON BIOMEDICAL, INC., priority 2015, published 2018).

Take `CC(=O)c1cc2c(o1)C(=O)c1ccccc1C2=O` [2-acetylnaphtho[2,3-b]furan-4,9-dione]: the “Best Response, regression” value was 50% in experiment [1] (Patient 0012, BBI608 240 mg bid) and 24% in experiment [1] (Patient 0021, BBI608 480 mg bid). Besides, the “expression of self-renewal / CSC genes (β-Catenin, Nanog, Smo, Sox2)” value in experiment [2] is on record as “decreased expression”. The “expression of p-Stat3 and β-catenin stem cell markers” value in experiment [3] was “dramatically reduced expression”.
